From paper PMC7753147, “High-throughput determination of protein affinities using unmodified peptide libraries in nanomolar scale” (iScience, 2020)

How the values were obtained:
gephE = assay: µSPOT peptide microarray binding assay with recombinant gephE
native geph = assay: µSPOT peptide microarray binding assay with native geph from mouse brain lysate
FL-geph = assay: µSPOT peptide microarray binding assay with full-length geph
[1] = µSPOT full positional scan of GlyRβ 15-mer DLRSNDFSIVGSLPR, intensity normalised to wild-type sequence (= 1)
[2] = µSPOT full positional scan of GlyRβ 15-mer DLRSNDFSIVGSLPR, native geph, intensity normalised to wild-type sequence (= 1)
[3] = µSPOT peptide microarray, GlyRβ full positional scan, recombinant gephE, intensity normalised to wild-type sequence DLRSNDFSIVGSLPR (=1)
[4] = µSPOT peptide microarray, GlyRβ full positional scan, native geph from mouse brain lysate, intensity normalised to wild-type sequence DLRSNDFSIVGSLPR (=1)
[5] = µSPOT peptide microarray, GlyRβ full positional scan, intensity normalised to wild-type sequence DLRSNDFSIVGSLPR (=1)

Sequence	gephE Binding Intensity [norm.] (gephE; [1])	Native geph Binding Intensity [norm.] (native geph; [2])	Fl-geph Binding Intensity [norm.] (FL-geph; [1])	gephE Binding Intensity [norm.] (gephE; [3])	Native geph Binding Intensity [norm.] (native geph; [4])	Fl-geph Binding Intensity [norm.] (FL-geph; [5])
DLRSNDFSIVGSLPR [GlyRβ_Full_Positional_Scan_099]				1	1	1
DLRSNDFSIVGSLPR [GlyRβ_Full_Positional_Scan_235]	1	1	1			
DLRSNDFSIVGSLVR [GlyRβ_Full_Positional_Scan_266]	0.62	0.45	0.91			
DLRSNDFSIVGSLWR [GlyRβ_Full_Positional_Scan_268]	0.61	0.32	0.72			
DLRSNDFSIVGSMPR [GlyRβ_Full_Positional_Scan_258]	0.69	0.92	1.08			
DLRSNDFSIVGSNPR [GlyRβ_Full_Positional_Scan_259]	0.9	0.97	1.03			
DLRSNDFSIVGSPPR [GlyRβ_Full_Positional_Scan_245]	0.89	0.78	0.96			
DLRSNDFSIVGSQPR [GlyRβ_Full_Positional_Scan_260]	0.76	0.8	0.97			
DLRSNDFSIVGSRPR [GlyRβ_Full_Positional_Scan_252]	0.84	0.38	1.07			
DLRSNDFSIVGSSPR [GlyRβ_Full_Positional_Scan_255]	0.84	0.85	1.08			
DLRSNDFSIVGSTPR [GlyRβ_Full_Positional_Scan_256]	0.86	0.89	1.14			
DLRSNDFSIVGSVPR [GlyRβ_Full_Positional_Scan_246]	0.92	0.82	1.06			
DLRSNDFSIVGSWPR [GlyRβ_Full_Positional_Scan_248]	0.7	0.52	0.93			
DLRSNDFSIVGSYPR [GlyRβ_Full_Positional_Scan_249]	0.99	1.23	0.87			
DLRSNDFSIVGTLPR [GlyRβ_Full_Positional_Scan_236]	0.94	1.05	0.98			
DLRSNDFSIVGVLPR [GlyRβ_Full_Positional_Scan_226]	0.69	0.74	1.01			
DLRSNDFSIVGWLPR [GlyRβ_Full_Positional_Scan_228]	0.57	0.19	0.67			
DLRSNDFSIVGYLPR [GlyRβ_Full_Positional_Scan_229]	0.53	0.31	0.59			
DLRSNDFSIVHSLPR [GlyRβ_Full_Positional_Scan_213, GlyR β 414-428 variant G424H]	0.47	0.18	0.5			
DLRSNDFSIVISLPR [GlyRβ_Full_Positional_Scan_203, GlyR β 414-428 variant G424I]				0.48	0.29	0.52
DLRSNDFSIVKSLPR [GlyRβ_Full_Positional_Scan_214, GlyR β 414-428 variant G424K]	0.5	0.17	0.44			
DLRSNDFSIVLSLPR [GlyRβ_Full_Positional_Scan_204, GlyR β 414-428 variant G424L]				0.57	0.23	0.53
DLRSNDFSIVMSLPR [GlyRβ_Full_Positional_Scan_218, GlyR β 414-428 variant G424M]	0.36	0.17	0.33			
DLRSNDFSIVNSLPR [GlyRβ_Full_Positional_Scan_219, GlyR β 414-428 variant G424N]	0.38	0.17	0.41			
DLRSNDFSIVPSLPR [GlyRβ_Full_Positional_Scan_205, GlyR β 414-428 variant G424P]				0.41	0.21	0.5
DLRSNDFSIVQSLPR [GlyRβ_Full_Positional_Scan_220, GlyR β 414-428 variant G424Q]	0.43	0.29	0.45			
DLRSNDFSIVRSLPR [GlyRβ_Full_Positional_Scan_212, GlyR β 414-428 variant G424R]	0.57	0.17	0.6			

Now from value to sequence:

gephE Binding Intensity [norm.] (gephE; [1])	Native geph Binding Intensity [norm.] (native geph; [2])	Fl-geph Binding Intensity [norm.] (FL-geph; [1])	gephE Binding Intensity [norm.] (gephE; [3])	Native geph Binding Intensity [norm.] (native geph; [4])	Fl-geph Binding Intensity [norm.] (FL-geph; [5])	Sequence
0.98	1.01	1.05				DLRSNDFSIVGSLPI [GlyRβ_Full_Positional_Scan_283]
0.92	0.71	1.24				DLRSNDFSIVGSLPK [GlyRβ_Full_Positional_Scan_294]
1.05	1.11	1.05				DLRSNDFSIVGSLPL [GlyRβ_Full_Positional_Scan_284]
0.9	1.42	1.34				DLRSNDFSIVGSLPM [GlyRβ_Full_Positional_Scan_298]
0.98	1.37	1.36				DLRSNDFSIVGSLPN [GlyRβ_Full_Positional_Scan_299]
1.02	1.08	1.03				DLRSNDFSIVGSLPP [GlyRβ_Full_Positional_Scan_285]
1.02	1.41	1.33				DLRSNDFSIVGSLPQ [GlyRβ_Full_Positional_Scan_300]
0.82	1.3	1.3				DLRSNDFSIVGSLPS [GlyRβ_Full_Positional_Scan_295]
0.87	1.56	1.37				DLRSNDFSIVGSLPT [GlyRβ_Full_Positional_Scan_296]
1.06	0.96	0.97				DLRSNDFSIVGSLPV [GlyRβ_Full_Positional_Scan_286]
0.89	0.76	0.84				DLRSNDFSIVGSLPW [GlyRβ_Full_Positional_Scan_288]
0.87	1.09	0.74				DLRSNDFSIVGSLPY [GlyRβ_Full_Positional_Scan_289]
0.53	0.41	0.77				DLRSNDFSIVGSLQR [GlyRβ_Full_Positional_Scan_280]
0.59	0.25	0.93				DLRSNDFSIVGSLRR [GlyRβ_Full_Positional_Scan_272]
0.72	0.5	0.92				DLRSNDFSIVGSLSR [GlyRβ_Full_Positional_Scan_275]
0.74	0.49	0.96				DLRSNDFSIVGSLTR [GlyRβ_Full_Positional_Scan_276]
0.78	0.59	0.71				DLRSNDFSIVGSLYR [GlyRβ_Full_Positional_Scan_269]
